These results are taken from patent publication US20080167384A1, “Use of Zeaxanthin For the Treatment of Diseases of the Peripheral Retina” (priority 2005, published 2008).

A short description of this test: Trial of zeaxanthin supplementation: macular pigment density monitored by heterochromatic flicker photometry (HCFP). In kind it is in vivo. Particulars: Zeaxanthin 20 mg/day, 6-12 months. How it is done: The usefulness of zeaxanthin for the purposes of the present invention can be seen from the results of a trial with a duration of 6-12 months carried out with 46 subjects which were randomized to two treatment groups: Zeaxanthin, 20 mg/day (n=23), and Placebo (n=23). Macular pigment density (MPD) during this trial was monitored monthly using heterochromatic flicker photometry (HCFP) by independently measuring luminances at central and eccentric (5°=reference) locations. MPD is then calculated by subtracting the luminance at the reference (=eccentric) location from the luminance at the retinal centre.

With `CC1=C(/C=C/C(C)=C/C=C/C(C)=C/C=C/C=C(C)/C=C/C=C(C)/C=C/C2=C(C)C[C@@H](O)CC2(C)C)C(C)(C)C[C@H](O)C1` [zeaxanthin], the “rise of luminance at the eccentric reference location” value (HCFP, eccentric (5°) reference location) was “approximately 8%”. The “rise of luminance at the central location” value (HCFP, retinal centre) was “approximately 8%”. Further, under “actual central luminances minus pre-supplementation eccentric reference luminance”, the “increase of macular pigment density (MPD) computed with the pre-supplementation eccentric reference luminance” value is reported as “about 11%”.
